{"source": "patent US6911429B2", "about": "“Compositions and methods for treating cellular response to injury and other proliferating cell disorders regulated by hyaladherin and hyaluronans” (Transition Therapeutics Inc., priority 1999, dated 2005)", "key": {"[1]": {"system": "LR21 cells", "test": "podosome formation in LR21 cells treated with exon 4 peptide (cortactin or CAS)", "assay_type": "cell-based", "text": "Podsomome formation was visualized using either fluorescent cortactin or CAS, the latter being a particularly useful marker for podosomes as illustrated by the micrographs in FIG. 17B."}, "[2]": {"target": "RHAMM binding to fibronectin (Homo sapiens, UniProt P02751)", "sequence (P02751 32-2477)": "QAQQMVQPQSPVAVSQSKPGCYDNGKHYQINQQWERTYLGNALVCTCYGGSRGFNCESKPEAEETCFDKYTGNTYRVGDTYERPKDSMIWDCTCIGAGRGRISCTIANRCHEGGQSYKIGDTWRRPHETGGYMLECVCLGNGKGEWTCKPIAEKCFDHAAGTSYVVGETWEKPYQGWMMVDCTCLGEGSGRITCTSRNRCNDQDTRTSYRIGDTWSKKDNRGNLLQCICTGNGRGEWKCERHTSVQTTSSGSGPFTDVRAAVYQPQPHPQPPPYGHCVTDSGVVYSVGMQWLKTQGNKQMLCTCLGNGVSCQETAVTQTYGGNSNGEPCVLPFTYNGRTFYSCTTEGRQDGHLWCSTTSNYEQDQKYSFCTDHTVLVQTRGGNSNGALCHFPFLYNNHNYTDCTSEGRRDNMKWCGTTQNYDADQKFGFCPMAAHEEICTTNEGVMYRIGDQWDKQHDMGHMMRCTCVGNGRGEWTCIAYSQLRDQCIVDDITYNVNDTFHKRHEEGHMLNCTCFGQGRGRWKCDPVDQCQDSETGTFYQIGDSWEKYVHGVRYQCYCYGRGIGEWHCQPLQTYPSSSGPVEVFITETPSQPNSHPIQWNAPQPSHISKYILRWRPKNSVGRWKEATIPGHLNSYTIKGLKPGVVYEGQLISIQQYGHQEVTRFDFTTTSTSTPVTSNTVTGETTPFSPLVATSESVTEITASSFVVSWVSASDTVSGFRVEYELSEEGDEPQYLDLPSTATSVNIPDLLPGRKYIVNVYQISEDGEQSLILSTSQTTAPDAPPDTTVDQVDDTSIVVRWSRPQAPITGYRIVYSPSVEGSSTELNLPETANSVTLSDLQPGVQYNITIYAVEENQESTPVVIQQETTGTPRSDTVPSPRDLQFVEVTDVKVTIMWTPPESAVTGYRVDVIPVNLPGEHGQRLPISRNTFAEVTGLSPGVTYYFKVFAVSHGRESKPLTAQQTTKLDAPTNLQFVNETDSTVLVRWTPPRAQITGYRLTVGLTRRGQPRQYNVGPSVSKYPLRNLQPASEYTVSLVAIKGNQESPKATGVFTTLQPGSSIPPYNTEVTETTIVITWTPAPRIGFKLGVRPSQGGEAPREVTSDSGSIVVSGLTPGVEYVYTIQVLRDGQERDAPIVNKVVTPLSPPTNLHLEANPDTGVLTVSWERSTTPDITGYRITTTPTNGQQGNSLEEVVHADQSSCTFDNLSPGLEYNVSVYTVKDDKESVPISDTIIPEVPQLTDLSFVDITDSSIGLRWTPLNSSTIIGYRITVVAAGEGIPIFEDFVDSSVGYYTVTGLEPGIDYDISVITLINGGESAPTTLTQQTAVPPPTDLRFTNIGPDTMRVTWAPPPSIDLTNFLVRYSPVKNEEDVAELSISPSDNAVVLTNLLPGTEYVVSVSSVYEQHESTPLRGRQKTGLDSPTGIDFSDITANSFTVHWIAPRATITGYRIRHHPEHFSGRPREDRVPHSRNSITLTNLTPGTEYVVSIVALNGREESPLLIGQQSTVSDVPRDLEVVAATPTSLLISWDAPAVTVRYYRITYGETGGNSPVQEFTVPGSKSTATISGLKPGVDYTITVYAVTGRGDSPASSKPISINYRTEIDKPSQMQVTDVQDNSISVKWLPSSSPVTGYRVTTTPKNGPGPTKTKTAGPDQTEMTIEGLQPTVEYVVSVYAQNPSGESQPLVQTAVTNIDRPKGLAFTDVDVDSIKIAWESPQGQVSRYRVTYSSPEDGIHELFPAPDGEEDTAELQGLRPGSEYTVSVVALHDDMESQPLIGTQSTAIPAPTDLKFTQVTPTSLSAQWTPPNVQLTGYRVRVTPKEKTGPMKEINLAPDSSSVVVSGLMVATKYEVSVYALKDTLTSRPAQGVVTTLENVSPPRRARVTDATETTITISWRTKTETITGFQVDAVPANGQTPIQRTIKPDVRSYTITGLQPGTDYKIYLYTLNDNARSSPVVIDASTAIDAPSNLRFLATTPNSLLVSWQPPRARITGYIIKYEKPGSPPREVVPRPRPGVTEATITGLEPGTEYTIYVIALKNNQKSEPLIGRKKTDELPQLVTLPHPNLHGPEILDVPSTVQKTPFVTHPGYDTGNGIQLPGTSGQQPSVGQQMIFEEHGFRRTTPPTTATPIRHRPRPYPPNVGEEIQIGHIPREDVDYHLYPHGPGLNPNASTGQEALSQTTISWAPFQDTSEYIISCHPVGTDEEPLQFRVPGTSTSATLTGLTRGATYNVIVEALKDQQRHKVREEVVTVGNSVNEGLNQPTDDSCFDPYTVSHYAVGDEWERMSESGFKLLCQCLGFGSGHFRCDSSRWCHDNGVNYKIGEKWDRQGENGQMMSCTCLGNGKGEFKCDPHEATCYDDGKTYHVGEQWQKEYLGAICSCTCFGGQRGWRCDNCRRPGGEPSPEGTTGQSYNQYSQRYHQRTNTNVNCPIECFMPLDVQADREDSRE", "test": "RHAMM binding to fibronectin (ELISA)", "text": "FIG. 21 further illustrates that RHAMM binds to the CS-1 fragment of fibomectin and not to the RGDS sequence which was previously considered to be a critical sequence for fibronectin signaling of matrix protein degradation."}, "[3]": {"system": "invasive cells", "test": "motility of invasive cells treated with RHAMM exon peptides or antibodies (FIG. 16)", "assay_type": "cell-based", "settings": "P<0.001 for peptide vs scrambled peptide", "text": "This effect is quantified in the graph shown in 16C and is highly significant (P<0.001, student's T test)."}, "[4]": {"system": "excisional skin wound", "test": "rat punch biopsy excisional skin wound model", "assay_type": "in vivo", "settings": "local application"}, "[5]": {"system": "human fibroblasts", "test": "velocity of cell locomotion of human fibroblasts on fibronectin", "assay_type": "cell-based", "settings": "0.1-50 ng/ml, 16 hrs", "method": "To quantify the effect of RHAMM sequence (amino acid residues 423-432; 423-432AA) to alter velocity of cell locomotion human fibroblasts were seeded on T-12.5 fibronectin coated flasks using A-MEM supplemented with glucose and 10% FBS. 2.5×10^4 cells were seeded and cells incubated for 4 hrs at 37° C. After incubation time cells were treated with increasing concentrations of RHAMM sequence peptide (423-432 AA, 0.1, 1.0, 5.0, 10 and 50 ng/ml) and cell locomotion was monitored over the period of 16 hrs on a 37° C. using 10× modulation objective (Zeiss, Germany) attached to a Zeiss Axiovert 100 inverted microscope equipped with Hoffman Modulation contrast optical filters (Greenvale, N.Y.). Cell images were captured with a CCD video camera module attached to a Hamamatsu CCD camera controller. Motility was assessed using Northern Exposure 2.9 image analysis software (Empix Imaging, Mississauga, Ontario). Nuclear displacement of 7-10 cells was measured and data were subjected to statistical analysis. Statistically significant (P<0.05) differences between means were assessed by the unpaired Student's T-test method, performed using Microsoft Excel '97 software."}, "[6]": {"test": "binding to hyaluronic acid (HA)", "text": "The present invention provides a method of similar sensitivity but which is cheaper and more reliable. The method is based on using HA binding partners discovered using the techniques described above for detecting RHAMM binding partners. Using a phage display library to bind to biotinylated HA permitted identification of five particular species of HA binding motifs described in SEQ. ID NOS: 6-10. This was accomplished by isolating phage that attached to HA which were further isolated, rescreened twice and recloned. The clones were then bound to biotinylated HA-sepharose beads and only those phage that could be released with unlabeled HA were retrieved, recloned and sequenced. Five clones comprising the sequences identified above were detected. These sequences all bind to HA and are useful for detecting HA in serum and tissues in an assay described below."}, "[7]": {"system": "MDA231 human breast cancer cells", "test": "cell motility of MDA231 breast cancer cells", "assay_type": "cell-based"}, "[8]": {"system": "MDA231 cells", "test": "in vitro invasion of MDA231 cells", "assay_type": "cell-based, human"}, "[9]": {"system": "RHAMMv4 overexpressing cells", "test": "podosome formation in RHAMMv4 overexpressing cells (cortactin marker)", "assay_type": "cell-based", "settings": "RHAMMv4 overexpression", "text": "(§1) To further illustrate the relationship between RHAMM, erk activity and podosome formation in transient stage cells, podosome formation is shown to be inhibited by inhibitors of erk activity. […] Overexpression of RHAMMv4 results in a sustained high production of podosomes, detected by the marker protein cortactin (A). […] Overexpression of RHAMMv4 enhances cell migration into wounds (D) compared to the parent 10T1/2 fibroblast line that produces little RHAMMv4 (E)."}, "[10]": {"system": "RHAMMv4 overexpressing cells", "test": "cell migration into wounds / wound repair of RHAMMv4 overexpressing cells", "assay_type": "cell-based", "text": "as §1"}, "[11]": {"system": "EAE in SJL/J mice", "test": "EAE mouse model for multiple sclerosis", "assay_type": "in vivo", "settings": "5 mg/kg i.p. daily; failed to reach statistical significance", "method": "Acute EAE was induced by immunization of 3 months old SJL/J female mice (Jackson Lab.; Bar Harbor, Me.) with the MBP and PTX pertussis toxin. Each animal received a sub-cutaneous injection at tail base of 200 μg MBP in 0.1 ml of CFA and received an intravenous injection of 200 ng of PTX. Pertussis toxin was injected again 48 hours later. Mice (4 animals per group) were treated with one of the following treatments through intraperitoneal injections: P-32 peptide at a dose of 5 mg/kg daily; S-7 peptide at a dose of 0.1 mg/kg daily starting on the day of first immunization. Treatment was stopped at time of sacrifice. Mice were monitored daily from day 7 after immunization for clinical signs of EAE and were scored on a scale of 0 to 5. A score of 0 represented the absence of signs while a score of 5 was given to moribund animals."}, "[12]": {"system": "NOD mice", "test": "NOD mouse model of type I diabetes mellitus", "assay_type": "in vivo", "settings": "5 mg/kg i.p. three times a week for 23 weeks", "method": "There are different colonies of NOD mice and there can be some variability between the colonies. The colony used develops the disease between 15-20 weeks of age and there is a 70-80% incidence of diabetes mellitus. The mice treated were divided into two groups of 10 animals; the first group being treated with P-16 peptide and the other group comprising of the control group, which was treated with saline. Once the NOD mice were 5 weeks old, the P-16 peptide was injected three times a week interperitoneally at a dose of 5 mg/kg for 23 weeks. The untreated mice and five mice from the treated group were sacrificed at 28 weeks of age. The remaining five mice from the treated group were taken off the peptide treatment at 28 weeks of age and were assessed for the disease after 16 weeks.\nThere are different colonies of NOD mice and there can be some variability between the colonies. The colony used develops the disease between 15-20 weeks of age and there is a 70-80% incidence of diabetes mellitus. The mice treated were divided into three groups of 10 animals; the first two groups being treated with S-3 and S-7 peptides, and the third group comprising of the control group, which was treated with saline. Once the NOD mice were 5 weeks old, the S-3 and S-7 peptides were injected three times a week intraperitoneally at a dose of 0.1 mg/kg for 23 weeks."}, "[13]": {"system": "ND4 transgenic mice", "test": "ND4 transgenic mouse model of multiple sclerosis (demyelination clinical signs)", "assay_type": "in vivo", "settings": "10 mg/kg intraperitoneally three times per week", "method": "Briefly, transgenic mice (ND 4) bearing 70 copies of the transgene for DM20, a myelin proteolipid protein, were utilized for assignment of scores based upon clinical signs of demyelination. Clinical signs which were assessed included general shaking, seizures, head jerk, hind-limb and tail shiver, unsteadiness, wobbly gait and limp tail. Within each sign score between 0-4 was given: where zero score means absent and score 4 means constant and uncontrollable appearance of the sign of the disease. Experimental groups of mice were divided into 4; each group contained 5 animals: one normal, one ND 4 mouse untreated and three ND 4 mice treated with RHAMM mimetic—P-peptide. Animals were treated three times per week with 10 mg/kg of P-peptide intraperitonealy. Peptide was resuspended in 300 μl of PBS.\nThe severity of the clinical signs increase until maximum around 6 months with animals dying around 8 to 9 months of age. The clinical signs assessed include general shaking, seizures, head jerk, hind limb and tail shiver, wobbly gait and limp tail. The scale of zero (absence) to four (constant and uncontrollable movements) was used for each of the clinical signs. […]"}, "[14]": {"system": "bleomycin-induced lung fibrosis", "test": "bleomycin-induced lung injury / fibrosis model", "assay_type": "in vivo", "text": "As described in more detail below, the RHAMM peptide mimetics prevent these pathological events, particularly recruitment and activation of macrophages, from occurring following bleomycin-induced lung fibrosis (FIG. 32). In particular, the infiltration of inflammatory cells and local responses such as fibrosis is completely absent with treatment. […] Therefore, these reagents should be effective for treating lung diseases that involve recruiting macrophages and inflammatory cells, as well as fibrosis. FIG. 34 illustrates motility of BAL cells four days after injury in response to administration of RHAMM peptides. […] Values represent mean and standard error with three animals studied for each condition and at least 20 cells tracked per animal studied. Increased N-acetyl-β-glucosamimidase activity is a known marker for fibrosis in lung tissue. […] Briefly, bleomycin injury results in an increased glucosamimidase activity (* p<0.01 versus controls and saline animals). […] Values represent mean and standard error with five animals studied for each condition. FIG. 35B illustrates that mRNA of collagen type la in lungs harvested 4 days after injury is reduced in response to administration of HA binding Peptide A. Collagen type la is common indicator of fibrosis in lung tissue injury models as used throughout this invention. […] The data shown are representative of three independent experiments. The ability of HA binding peptides to inhibit fibrosis is further illustrated by histological analysis. FIG. 36 are micrographs from a histological analysis of lung tissue treated with and without HA binding Peptide A after bleomycin injury. Panels (a-c) show tissue after treatment with saline alone, and panels (d-f) show tissues injured by bleomycin treatment."}, "[15]": {"target": "erk1 His-6-tagged fusion protein", "test": "peptide competition of erk1 His-6 binding to RHAMM v4 beads; D4 and D5 peptides present together"}}, "note": "Where no end group is shown, it is not given here.", "data": [{"molecule": "SEQ. ID NO: 16: peptide from murine RHAMM exon 4 (VSIEKEKIDEKCETEKLLEYIQEIS; listed as Mus musculus)", "values": [{"measurement": "formation of podosomes", "setting": "[1]", "value": "blocks the formation of podosomes"}]}, {"molecule": "SEQ. ID NO: 15: peptide mimicking RHAMM exon 3, used to raise anti-exon 3 antibodies (KLQATQKDLTESKG; listed as Mus musculus)", "values": [{"measurement": "binding of RHAMM to fibronectin", "setting": "[2]", "value": "able to block the binding of intact RHAMM to fibronectin"}, {"measurement": "motility of invasive cells", "setting": "[3]", "value": "block the motility of invasive cells"}]}, {"molecule": "RGGGRGGRR (Peptide that binds a hyalauronan) [peptide B]", "values": [{"measurement": "infiltration of macrophages in wounded biopsies (Glucosimimidase activity)", "setting": "[4]", "value": "inhibited the infiltration of macrophages"}]}, {"molecule": "RHAMM sequence (423-432 AA): RHAMM sequence peptide, amino acid residues 423-432 (SEQ ID NO 24) (KLRSQLVKRKQ; Homo sapien)", "values": [{"measurement": "inhibition of migration of human fibroblasts", "setting": "[5]", "value": "up to 40%"}]}, {"molecule": "RGGGGGGGR (Peptide that binds a hyalauronan) [peptide D, reference compound]", "values": [{"measurement": "infiltration of macrophages in wounded biopsies (Glucosimimidase activity)", "setting": "[4]", "value": "does not inhibit macrophage infiltration"}, {"measurement": "binding to HA", "setting": "[6]", "value": "does not bind HA"}]}, {"molecule": "COc1cccc(-c2cc(=O)c3ccccc3o2)c1N", "note": "[PD09058]", "values": [{"measurement": "cell motility / locomotion", "setting": "[7]", "value": "strongly reduces cellular locomotion"}, {"measurement": "cell invasion in vitro", "setting": "[8]", "value": "blocks cell invasion"}, {"measurement": "number of podosomes", "setting": "[9]", "value": "reduces the number of podosomes"}, {"measurement": "wound repair (cell migration into wounds)", "setting": "[10]", "value": "blocks wound repair"}]}, {"molecule": "KQKIKHVVKLKDENSQLKSEVSKLRCQLAKKK [P-32, specific RHAMM region]", "values": [{"measurement": "decrease in mean clinical score", "setting": "[11]", "value": 20, "unit": "%"}]}, {"molecule": "RGGGRGGGR (Peptide that binds a hyalauronan) [C]", "values": [{"measurement": "infiltration of macrophages in wounded biopsies (Glucosimimidase activity)", "setting": "[4]", "value": "inhibited the infiltration of macrophages"}]}, {"molecule": "CSTMMSRSHKTRSHHV [P-peptide, CSTMMSRSHKTRSHHV]", "values": [{"measurement": "toxicity", "setting": "[12]", "value": "absence of any toxicity"}, {"measurement": "toxicological or lethal effects on animals", "setting": "[13]", "value": "without observing toxicological or lethal effects"}]}, {"molecule": "RGGGRGRRR (Peptide that binds a hyalauronan) [Peptide A]", "values": [{"measurement": "infiltration of macrophages in wounded biopsies (Glucosimimidase activity)", "setting": "[4]", "value": "inhibited the infiltration of macrophages"}, {"measurement": "increase in collagen type la mRNA in lungs", "setting": "[14]; 4 days after injury", "value": "completely inhibited"}, {"measurement": "N-acetyl-β-glucosamimidase activity of BAL cells", "setting": "[14]; 7 days after bleomycin injury", "value": "significantly decreased glucosamimidase activity"}, {"measurement": "lung histology", "setting": "[14]; after bleomycin injury", "value": "normal lung architecture"}, {"measurement": "motility of BAL cells (macrophages)", "setting": "[14]; four days after bleomycin injury, peptide given prior to injury", "value": "significantly lower cell locomotion"}]}, {"molecule": "QEKYNDTAQSLRDVTAQLESV", "note": "[D4 peptide of RHAMM]", "values": [{"measurement": "reduction of erk1 binding to v4", "setting": "[15]", "value": 90, "unit": "%"}]}, {"molecule": "KQKIKHVVKLKDENSQLKSEVSKLRSQLVKRK", "note": "[D5 peptide of RHAMM]", "values": [{"measurement": "reduction of erk1 binding to v4", "setting": "[15]", "value": 90, "unit": "%"}]}]}
